Where two headings read alike, the source gives them in different places.
Target: T1, E. coli CsgA (Escherichia coli, UniProt P28307)
T1 construct: made in house; host or cells: E. coli NEB 3016 slyD::kan, pET11d
Assay: In vitro ThioflavinT assay of CsgA aggregation (CsgA ThT Assay)
Type: biochemical
In short: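 Purified C-terminal His-tagged CsgA, monomerised by desalting and 30-kDa filtration, at 2-20 μM with 20-40 μM ThT in 50 mM potassium phosphate pH 7.3, 1% DMSO, compounds 3.125-200 uM; room temperature, fluorescence (ex 438/em 495 nm) read every 15 min. Background-subtracted signal expressed as percent inhibition versus vehicle at 6-6.5 or 8-9 h, or as percent control AUC.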

[1] = read-out: CsgA ThT Assay (10 μM CsgA) % Control AUC at 1005 minutes, 25 μM (activity range), CsgA 10 μM, black plates, compound 25 μM, 1005 minutes, class symbol
[2] = read-out: CsgA ThT Assay (10 μM CsgA) % Control AUC at 1005 minutes, 25 μM, mean AUC as % of DMSO control, CsgA 10 μM, black plates, compound 25 μM, 1005 minutes
[3] = read-out: CsgA ThT Assay (10 μM CsgA) % Control AUC at 1005 minutes, 100 μM (activity range), CsgA 10 μM, black plates, compound 100 μM, 1005 minutes, class symbol
[4] = read-out: CsgA ThT Assay (10 μM CsgA) % Control AUC at 1005 minutes, 100 μM, mean AUC as % of DMSO control, CsgA 10 μM, black plates, compound 100 μM, 1005 minutes
[5] = read-out: CsgA ThT Assay (2 μM CsgA) % Control Bmax 25 μM, activity range, class symbol, CsgA 2 μM, white plates, compound 25 μM
[6] = read-out: CsgA ThT Assay (2 μM CsgA) % Control Bmax 25 μM, mean Bmax as percentage of DMSO control, CsgA 2 μM, white plates, compound 25 μM
[7] = read-out: CsgA ThT Assay (2 μM CsgA) % Control Bmax 100 μM, activity range, class symbol, CsgA 2 μM, white plates, compound 100 μM
[8] = read-out: CsgA ThT Assay (2 μM CsgA) % Control Bmax 100 μM, mean Bmax as percentage of DMSO control, CsgA 2 μM, white plates, compound 100 μM

T1 sequence (P28307 23-151): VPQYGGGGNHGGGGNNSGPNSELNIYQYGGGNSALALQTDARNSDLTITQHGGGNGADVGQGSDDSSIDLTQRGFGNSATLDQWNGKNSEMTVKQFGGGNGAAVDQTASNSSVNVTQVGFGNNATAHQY

Row | SMILES | remaining activity at 25 µM [1] [%] | remaining activity at 25 µM [2] [%] | remaining activity at 100 µM [3] [%] | remaining activity at 100 µM [4] [%] | remaining activity at 25 µM [5] [%] | remaining activity at 25 µM [6] [%] | remaining activity at 100 µM [7] [%] | remaining activity at 100 µM [8] [%] | other results
1 | O=C(O)C1CN(C[C@H](O)CO)S(=O)(=O)c2c(-c3cccc(C(F)(F)F)c3)c(Cc3cccc4ccccc34)cc(=O)n21 (stereo partly drawn) [Compound 065a, 2-((S)-2,3-dihydroxypropyl)-8-(naphthalen-1-ylmethyl)-6-oxo-9-(3-(trifluoromethyl)phenyl)-3,4-dihydro-2H,6H-pyrido[1,2-e][1,2,5]thiadiazine-4-carboxylic acid 1,1-dioxide] | > 60 | 65 | 11 to 31 | 18 |  |  |  |  | 
2 | CCCN1CC(C(=O)O)n2c(c(-c3cccc(C(F)(F)F)c3)c(Cc3cccc4ccccc34)c(C(N)=O)c2=O)S1(=O)=O (stereo not drawn) [Compound 172, 7-carbamoyl-8-(naphthalen-1-ylmethyl)-6-oxo-2-propyl-9-(3-(trifluoromethyl)phenyl)-3,4-dihydro-2H,6H-pyrido[1,2-e][1,2,5]thiadiazine-4-carboxylic acid 1,1-dioxide] |  |  |  |  | 11 to 31 | 26 | 11 to 31 | 17 | 
3 | Cn1c(=O)c2c(nc(CCCCCCN3CC(C(=O)O)n4c(c(-c5cccc(C(F)(F)F)c5)c(Cc5cccc6ccccc56)cc4=O)S3(=O)=O)n2C)n(C)c1=O (stereo not drawn) [Compound 046, 8-(naphthalen-1-ylmethyl)-6-oxo-9-(3-(trifluoromethyl)phenyl)-2-(6-(1,3,7-trimethyl-2,6-dioxo-2,3,6,7-tetrahydro-1H-purin-8-yl)hexyl)-3,4-dihydro-2H,6H-pyrido[1,2-e][1,2,5]thiadiazine-4-carboxylic acid 1,1-dioxide] | 31 to 60 | 55 | 31 to 60 | 55 |  |  |  |  | 
4 | CN1CC(C(=O)O)n2c(c(-c3cccc(C(F)(F)F)c3)c(Cc3cccc4ccccc34)c(C(=O)N3CCOCC3)c2=O)S1(=O)=O (stereo not drawn) [Compound 160, 2-methyl-7-(morpholine-4-carbonyl)-8-(naphthalen-1-ylmethyl)-6-oxo-9-(3-(trifluoromethyl)phenyl)-3,4-dihydro-2H,6H-pyrido[1,2-e][1,2,5] thiadiazine-4-carboxylic acid 1,1-dioxide] |  |  |  |  | > 60 | 101 | > 60 | 116 | 
5 | Cn1c(=O)c2c(ncn2CCCCCCCN2CC(C(=O)O)n3c(c(-c4cccc(C(F)(F)F)c4)c(Cc4cccc5ccccc45)cc3=O)S2(=O)=O)n(C)c1=O (stereo not drawn) [Compound 036] | > 60 | 65 |  |  |  |  |  |  | 
6 | CCCN1CC(C(=O)O)n2c(c(-c3cccc(C(F)(F)F)c3)c(Cc3cccc4ccccc34)cc2=O)S1(=O)=O (single isomer, unassigned) [Compound 016b, 8-(naphthalen-1-ylmethyl)-6-oxo-2-propyl-9-(3-(trifluoromethyl)phenyl)-3,4-dihydro-2H,6H-pyrido[1,2-e][1,2,5]thiadiazine-4-carboxylic acid 1,1-dioxide] |  |  |  |  |  |  |  |  | CsgA ThT Assay (10 μM CsgA) % Control AUC at 1005 minutes, 25 μM (activity range) (CsgA 10 μM, black plates, compound 25 μM, 1005 minutes, class symbol): (++) (% control AUC of 31 to 60%); CsgA ThT Assay (10 μM CsgA) % Control AUC at 1005 minutes, 100 μM (activity range) (CsgA 10 μM, black plates, compound 100 μM, 1005 minutes, class symbol): (+++) (% control AUC of 11 to 31%); CsgA ThT Assay (10 μM CsgA) % Control AUC at 1005 minutes, 25 μM (mean AUC as % of DMSO control, CsgA 10 μM, black plates, compound 25 μM, 1005 minutes): 33%; CsgA ThT Assay (10 μM CsgA) % Control AUC at 1005 minutes, 100 μM (mean AUC as % of DMSO control, CsgA 10 μM, black plates, compound 100 μM, 1005 minutes): 23%
7 | O=C(O)C1CN(CC2CCCCC2)c2c(-c3cccc(C(F)(F)F)c3)c(Cc3cccc4ccccc34)c(Cl)c(=O)n21 (stereo not drawn) [Compound 180, 6-chloro-1-(cyclohexylmethyl)-7-(naphthalen-1-ylmethyl)-5-oxo-8-(3-(trifluoromethyl)phenyl)-1,2,3,5-tetrahydroimidazo[1,2-a]pyridine-3-carboxylic acid] |  |  |  |  | > 60 | 65 | 11 to 31 | 21 | 
8 | O=C(O)c1c(-c2ccccc2)sc2c(-c3cccc(C(F)(F)F)c3)c(Cc3cccc4ccccc34)cc(=O)n12 [Compound 051, 7-(naphthalen-1-ylmethyl)-5-oxo-2-phenyl-8-(3-(trifluoromethyl)phenyl)-5H-thiazolo[3,2-a]pyridine-3-carboxylic acid] | > 60 | 81 | 31 to 60 | 54 |  |  |  |  | 

From patent publication US20230131899A1, “INHIBITORS OF MICROBIALLY INDUCED AMYLOID” (Axial Therapeutics, Inc., priority 2020, published 2023)
